Reference: US6369226B1, “Substituted benzamide inhibitors of rhinovirus 3C protease” (Agouron Pharmaceuticals, Inc., priority 1999, dated 2002)
Read-outs that look alike come from different tables or passages of the source.

Columns and labels:
HRV-14 3CP = target: T1, HRV-14 3CP (Human rhinovirus 14, UniProt P03303); experiment: 3CP enzyme inhibition assay; format: biochemical; conditions: for kinact/KI: read-out: Kobs/[I]
T1 construct: The 2A and 3C protease (3CP) process this polyprotein into its functional viral proteins in HRV
From the text: 3CP Inhibition Assays and Antiviral Assays The details of the 3CP enzyme assays used and the antiviral assays used are outlined in Dragovich, P. S., Webber, S. E, Babine, R. E., Fuhrman, S. A., Patick, A. K., Matthews, D. A., Lee, C. A., Reich, S. H., Prins, T. J., Marakovits, J. T., Littlefield, E. S., Zhou, R., Tikhe, J., Ford, C. E., Wallace, M. B., Meador, III, J. W., Ferre, R., Brown, E. L., Binford, S. L, Harr, , J. E. V., DeLisle, D. M. and Worland, S. T. Structure-Based Design, Synthesis, and Biological Evaluation of Irreversible Human Rhinovirus 3C Protease Inhibitors. 1. Michael Acceptor Structure-Activity Studies J. Med. Chem. 1998,41, 2806, the disclosure of which is incorporated by reference herein.

HRV-14 = experiment: antiviral cytopathic effect assay employing H1-HeLa cells infected with HRV-14; format: cell-based, human rhinovirus serotype 14; conditions: for EC50: Rhinovirus B, HRV14, H1-HeLa
[1] = cytotoxicity (CC50) in the antiviral cell culture assay; conditions: human
3CP = target: T2, 3CP (Human rhinovirus 14, UniProt P03303); experiment: loss of 3CP inhibitory activity after exposure of compound to DTT; format: biochemical; conditions: for DTT inhib.: loss of 3CP inhibitory activity after exposure to 5 mM DTT for 2-3 min at 23° C.
T2 construct: The 2A and 3C protease (3CP) process this polyprotein into its functional viral proteins in HRV
Procedure: With this information in hand, additional esters were prepared and tested. It was anticipated that by filling the active site in the prime direction (S1′-S2′), additional affinity might be obtained. […] To determine whether the activity of the parent compound 1 was due to the inherent reactivity of the unsaturated ester, alternative substitutions were examined in the 1-position corresponding to the S1 recognition pocket. […] (Webber, S. E., Tikhe, J., Worland, S. T., Fuhrman, S. A., Hendrickson, T. F., Matthews, D. A., Love, R. A., Patick, A. K., Meador, J. W., Ferre, R. A., Brown, E. L., DeLisle, D. M., Ford, C. E., Binford, S. L. Design, Synthesis, and Evaluation of Nonpeptidic Inhibitors of Human Rhinovirus 3C Protease. J. Med. Chem. 1996, 39, 5072-5082.) Increased activation of the Michael acceptor toward nucleophilic addition, by alpha cyano substitution, led to a modest but reversible inhibitor, compound 9. Various unsaturated imides, also expected to be more reactive than an unsaturated ester, were poor inhibitors. Exploration of α,β-unsaturated ketones led to some interesting findings. […] When tested in the antiviral assay, ketones in general had greater toxicity (lower CC50) and no measurable antiviral effect. […] (Dragovich, P. S., Webber, S. E, Babine, R. E., Fuhrman, S. A., Patick, A. K., Matthews, D. A., Lee, C. A., Reich, S. H., Prins, T. J., Marakovits, J. T., Littlefield, E. S., Zhou, R., Tikhe, J., Ford, C. E., Wallace, M. B., Meador, III, J. W., Ferre, R., Brown, E. L., Binford, S. L, Harr, J.E. V., DeLisle, D. M. and Worland, S. T. Structure-Based Design, Synthesis, and Biological Evaluation of Irreversible Human Rhinovirus 3C Protease Inhibitors. 1. Michael Acceptor Structure-Activity Studies J. Med. Chem. 1998,41, 2806.) Electron-donating substituents at the 4-position of the phenyl ketone (4-Me2N—, 4-MeO—), were expected to make the ketones less reactive, however, no effect on their inactivation with DTT was observed. Similarly, heterocyclic ketones (2-pyridyl, 2-furyl) maintained their reactivity with DTT. In an attempt to make the inhibitors more compact, an indenone scaffold was designed. […] It became clear that while small, nonpeptidic α,β-unsaturated ketones such as compound 22 afforded potent […] inhibition of 3CP, this increased reactivity was incompatible with the more complex cellular milieu present in the cytopathic effect assay.

[2] = Table 1, Serotype 14, NI = no inhibition

T1 sequence (P03303 1538-1719): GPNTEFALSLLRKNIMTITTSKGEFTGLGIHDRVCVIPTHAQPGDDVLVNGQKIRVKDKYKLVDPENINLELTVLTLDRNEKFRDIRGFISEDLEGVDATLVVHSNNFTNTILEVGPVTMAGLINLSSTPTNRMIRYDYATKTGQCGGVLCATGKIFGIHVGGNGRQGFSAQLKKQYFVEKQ
T2 sequence (P03303 1538-1719): as above

In the case of `CCOC(=O)C=Cc1cc(CN2CCN(c3ncccn3)CC2)cc(C(N)=O)c1` [Compound 29, 3-{3-Carbamoyl-5-(4-pyrimidin-2-yl-piperazin-1-ylmethyl)-phenyl}-acrylic acid ethyl ester], the kinact/KI (HRV-14 3CP) is reported as 163 M⁻¹ s⁻¹, the EC50 (HRV-14; Table 3, Serotype 14, read-out: EC50) is reported as 1 µM and the CC50 [1] is reported as > 100 µM.
`CCOC(=O)/C=C/c1cccc(C(N)=O)c1` [Compound 1, 3-(3-Carbamoylphenyl)-acrylic acid ethyl ester] gave a kinact/KI (HRV-14 3CP) of 52 M⁻¹ s⁻¹, a melting point of 168 to 170 °C and an EC50 (HRV-14) of 15.9 µM. The CC50 [1] was > 320 µM.
For `NC(=O)c1cccc(C=CC(=O)OCc2cccnc2)c1` [Compound 6, 3-(3-Carbamoyl-phenyl)-acrylic acid pyridin-3-yl methyl ester], the “Kobs/[I]” value (HRV-14 3CP; [2]) was 57 M⁻¹ s⁻¹.
Molecule `NC(=O)c1cccc(C=O)c1` [Compound 1a, 3-Carbamoyl-benzaldehyde] has a Ki (HRV-14 3CP) of 104 µM.
With `NC(=O)c1cccc(C=CC(=O)c2ccccn2)c1` [Compound 20, 3-(3-Oxo-3-pyridin-2-yl-propenyl)-benzamide] the DTT inhib. (3CP) was “yes”, the EC50 (HRV-14) was > 50 µM and the CC50 [1] was > 50 µM.
For `CCOC(=O)/C=C/c1cc(O)cc(C(N)=O)c1` [Compound 11, 3-(3-Carbamoyl-5-hydroxy-phenyl)-acrylic acid ethyl ester], the kinact/KI (HRV-14 3CP; [2]) was 47 M⁻¹ s⁻¹, the melting point was 200 to 202 °C and the EC50 (HRV-14) was > 100 µM. The CC50 [1] was > 100 µM.
Work on `CCOC(=O)C=Cc1cc(OCc2ccccc2)cc(C(N)=O)c1` [Compound 12, 3-(3-Benzyloxy-5-carbamoyl-phenyl)-acrylic acid ethyl ester] yielded a melting point of 193 to 194 °C.
For “3-[3-Carbamoyl-5-(5-pyridin-2-yl-[1,3,4]oxaldiazol-2-ylsulfanylmethyl-phenyl]-acrylic acid ethyl ester [Compound 25]”, the “Kobs/[I]” value (HRV-14 3CP; Table 3, Serotype 14) was 286 M⁻¹ s⁻¹.
In the case of `CCOC(=O)C=Cc1cc(CN2CCN(c3ccccn3)CC2)cc(C(N)=O)c1` [Compound 26, 3-[3-Carbamoyl-5-(4-pyridin-2-yl-piperizin-1-methyl)-phenyl]-acrylic acid ethyl ester], the “Kobs/[I]” value (HRV-14 3CP; Table 3, Serotype 14) is reported as 269 M⁻¹ s⁻¹.
In the case of `CCOC(=O)C=Cc1cc(CN2CCN(c3ccccc3C#N)CC2)cc(C(N)=O)c1` [Compound 30, 3-{3-Carbamoyl-5-[4-(2-cyano-phenyl)-piperazin-1-ylmethyl]-phenyl}-acrylicacid ethyl ester], the kinact/KI (HRV-14 3CP; Table 3, Serotype 14) is reported as 139 M⁻¹ s⁻¹, the “antiviral activity (in words)” value (HRV-14) is reported as “submicromolar antiviral activity” and the EC50 (HRV-14) is reported as 0.6 µM. It also gave an EC50 (HRV-14; read-out: antiviral EC50) of 0.6 µM and a CC50 [1] of 79 µM.
In the case of `CN(C)c1ccc(C(=O)/C=C/c2cccc(C(N)=O)c2)cc1` [Compound 18, 3-[3-(4-Dimethylamino-phenyl)-oxo-propenyl] benzamide], the DTT inhib. (3CP) is reported as “yes”, the EC50 (HRV-14) is reported as > 15 µM and the CC50 [1] is reported as > 15 µM.
For `NC(=O)c1ccc2c(c1)C=CC2=O` [Compound 22, 1-Oxo-1H-indene-5-carboxylic acid amide], the DTT inhib. (3CP) was “yes”, the “inactivation by DTT (in words)” value (3CP; upon incubation with DTT) was “inactivated by DTT” and the melting point was 275 °C (dec.). For the same molecule, the “antiviral activity (in words)” value (HRV-14) was “no antiviral activity”, the EC50 (HRV-14) was > 20 µM and the CC50 [1] was > 20 µM.
With `CCOC(=O)/C=C/c1cc(C(N)=O)ccc1C` [Compound 10, 6-Methyl-3-(3-carbamoylphenyl)-acrylic acid ethyl ester] the “% inhibition (printed in the Kobs/[I] column)” value (HRV-14 3CP; @ 25 (concentration unit not given), Serotype 14) was 10% @ 25, the EC50 (HRV-14) was > 100 µM and the CC50 [1] was > 100 µM.
In the case of `COC(=O)/C=C/c1cccc(C(N)=O)c1` [Compound 2, 3-(3-Carbamoyl-phenyl)-acrylic acid methyl ester], the kinact/KI (HRV-14 3CP; [2]) is reported as 28 M⁻¹ s⁻¹, the “fold less active in the antiviral assay relative to ethyl ester compound 1” value (HRV-14) is reported as 10 fold and the EC50 (HRV-14) is reported as 150 µM. For the same molecule, the CC50 [1] was > 320 µM.
In the case of `CCOC(=O)/C(C#N)=C/c1cccc(C(N)=O)c1` [Compound 9, (E)-3-(3-Carbamoyl-phenyl)-2-cyano-acrylic acid ethyl ester], the EC50 (HRV-14) is reported as > 100 µM and the CC50 [1] is reported as > 100 µM.
In the case of `CCOC(=O)C=Cc1ccc(OCc2ccccc2)c(C(N)=O)c1` [Compound 15, 3-(4-Benzyloxy-3-carbamoyl-phenyl)-acrylic acid ethyl ester], the kinact/KI (HRV-14 3CP; [2]) is reported as 30 M⁻¹ s⁻¹, the EC50 (HRV-14) is reported as > 320 µM and the CC50 [1] is reported as > 320 µM.
In the case of `NC(=O)c1cccc(C=CC(=O)c2ccco2)c1` [Compound 21, 3-(3-Furan-2-yl-3-oxo-propenyl)-benzamide], the DTT inhib. (3CP) is reported as “yes”, the EC50 (HRV-14) is reported as > 71 µM and the CC50 [1] is reported as > 71 µM.
In the case of `NC(=O)c1cccc(C=CC(=O)OCCc2ccccc2)c1` [Compound 5, 3-(3-Carbamoyl-phenyl)-acrylic acid phenethyl ester], the kinact/KI (HRV-14 3CP; [2]) is reported as 83 M⁻¹ s⁻¹, the EC50 (HRV-14) is reported as 100 µM and the CC50 [1] is reported as > 320 µM.
With `NC(=O)c1cccc(C=CC(=O)c2ccccc2)c1` [Compound 17, 3-(3-Oxo-3-phenyl-prop-1-enyl)-benzamide] the DTT inhib. (3CP) was “yes”, the EC50 (HRV-14) was 28 µM and the CC50 [1] was > 28 µM.
For `CCOC(=O)C=Cc1cc(CN(CCC(=O)OCC)Cc2ccccc2)cc(C(N)=O)c1` [Compound 23, 3-(3-{[Benzyl-(2-ethoxycarbonyl-ethyl)-amino]-methyl}-5-carbamoyl-phenyl)-acrylic acid ethylester], the kinact/KI (HRV-14 3CP; Table 3, Serotype 14) was 568 M⁻¹ s⁻¹, the EC50 (HRV-14) was 10 µM and the CC50 [1] was > 100 µM.
With `NC(=O)c1cccc(C=CC(=O)OCCO)c1` [Compound 4, 3-(3-Carbamoyl-phenyl)-acrylic acid 2-hydroxyethyl ester] the kinact/KI (HRV-14 3CP; [2]) was 42 M⁻¹ s⁻¹, the EC50 (HRV-14) was 20 µM and the CC50 [1] was > 320 µM.
With `CC(=O)C=Cc1cccc(C(N)=O)c1` [Compound 16, 3-(3-Oxo-but-1-enyl)-benzamide] the DTT inhib. (3CP) was “yes”, the EC50 (HRV-14) was 32 µM and the CC50 [1] was 40 µM.
With `CCOC(=O)C=Cc1cc(CN2CCN(C(=O)OCC)CC2)cc(C(N)=O)c1` [Compound 28, 4-[3-Carbamoyl-5-(2-ethoxycarbonyl-vinyl)-benzyl]-piperazine-1-carboxylic acid ethyl ester] the kinact/KI (HRV-14 3CP) was 130 M⁻¹ s⁻¹, the EC50 (HRV-14) was 1.8 µM and the CC50 [1] was > 100 µM.
For `CCOC(=O)/C=C/c1cc(CO)cc(C(N)=O)c1` [Compound 13, 3-(3-Carbamoyl-5-hydroxymethyl-phenyl)-acrylic acid ethyl ester], the kinact/KI (HRV-14 3CP; [2]) was 54 M⁻¹ s⁻¹, the EC50 (HRV-14) was > 100 µM and the CC50 [1] was > 100 µM.
In the case of `COc1ccc(C(=O)/C=C/c2cccc(C(N)=O)c2)cc1` [Compound 19, 3-[3-(4-Methoxy-phenyl)-oxo-propenyl] benzamide], the DTT inhib. (3CP) is reported as “yes”, the EC50 (HRV-14) is reported as > 22 µM and the CC50 [1] is reported as > 22 µM.
In the case of `NC(=O)c1cccc(C=CC(=O)OCc2ccccc2)c1` [Compound 3, 3-(3-Carbamoyl-phenyl)-adrylic acid benzyl ester], the “Kobs/[I]” value (HRV-14 3CP; [2]) is reported as 25 M⁻¹ s⁻¹ and the CC50 (H1-HeLa cells) is reported as > 100 µM.
